Data as given in paper PMC5854716, “Synthesis, molecular docking, ctDNA interaction, DFT calculation and evaluation of antiproliferative and anti-Toxoplasma gondii activities of 2,4-diaminotriazine-thiazole derivatives” (Medicinal Chemistry Research, 2018).
Blank lines part the entries; values can stand above or below the compound they belong to.

What was measured:
[1] = test system: human lung carcinoma A549 cells; test: In vitro antiproliferative assay (SRB), A549; assay type: cell-based; settings: mean ± SD; for IC50: Homo sapiens, A549, 72 h exposure; for IC50 A549: 72 h exposure
Procedure: (§1) Biphenotypic B myelomonocytic leukemia MV4-11, human lung carcinoma A549, human breast carcinoma MCF-7, and normal mouse fibroblast BALB/3T3 cells were obtained from American Type Culture Collection (Rockville, Maryland, USA). All the cell lines are being maintained at the Institute of Immunology and Experimental Therapy, Wroclaw, Poland. MV4-11 cells were cultured in RPMI 1640 medium (Gibco, UK) with 2 mM L-glutamine adjusted to contain 1.0 mM sodium pyruvate, and 10% fetal bovine serum (FBS) (all from Sigma-Aldrich, Germany). A549 cells were cultured in RPMI 1640+ Opti-MEM (1:1) (both from Gibco, UK), MCF-7 cells in Eagle medium (IIET, Wroclaw, Poland), BALB/3T3 in Dulbecco medium (IIET, Poland) supplemented with 2 mM L-glutamine and 1.0 mM sodium pyruvate, 10% fetal bovine serum (all from Sigma-Aldrich, Germany). The MCF-7 cell culture was supplemented with 0.8 mg/l of insulin (Sigma-Aldrich, Germany). All culture media were supplemented with 100 units/ml penicillin, and 100 µg/ml streptomycin (both from Polfa Tarchomin S.A., Poland). All cell lines were grown at 37 °C with 5% CO2 humidified atmosphere (Łączkowski et al. [2014], [2016a]). Prior to usage, the compounds were dissolved in DMSO and culture medium (1: 9) to the concentration of 1 mg/ml, and subsequently diluted in culture medium to reach the required concentrations (0.1, 1, 10, and 100 µg/ml) (Łączkowski et al. [2014], [2016a]). Twenty-four hours prior to the addition of the tested compounds, the cells counted using Burker hemocytometer were plated in 96-well plates (Sarstedt, Germany) at a density of 1 × 10^4 cells per well. The assay was performed after 72 h of exposure to varying concentrations of the tested agents. The in vitro cytotoxic effect of all agents was examined using the SRB assay for adherent cells (A549, MCF-7, and BALB/3T3) or MTT assay for leukemia cells (MV4-11) as described previously. […] Each compound in each concentration was tested in triplicate in a single experiment, which was repeated 3–7 times (Rubinstein et al. [1990]; Bramson et al. [1995]). Cells were attached to the bottom of plastic wells by fixing them with cold 50% TCA (trichloroacetic acid, POCH, Gliwice, Poland) on top of the culture medium in each well. The plates were incubated at 4 °C for 1 h and then washed five times with tap water. The cellular material fixed with TCA was stained with 0.1% sulforhodamine B (SRB, Sigma-Aldrich, Germany) and dissolved in 1% acetic acid (POCH, Gliwice, Poland) for 30 min. Unbound dye was removed by rinsing (4×) in 1% acetic acid. The protein-bound dye was extracted with 10 mM unbuffered Tris base (Sigma-Aldrich, Germany) for determination of the optical density (λ = 540 nm) in a computer-interfaced, 96-well Synergy H4 (BioTek Instruments USA) photometer microtiter plate reader (Sidoryk et al. [2012]).

[2] = Cell viability assay (MTT), VERO; assay type: cell-based, Cercopithecus aethiops; settings: African green monkey (Cercopithecus aethiops), VERO kidney epithelial cells
In short: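 L929 and VERO cells seeded at 1.0 × 10^4/well, attached 24 h, then exposed 24 h to compounds at 0.9–125.00 μg/ml (from DMSO stock). MTT (1 mg/ml) added for 2 h at 37 °C, formazan dissolved in DMSO, OD read at 550 nm. Viability expressed as percentage of 2.5% DMSO-treated controls; triplicate.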

[3] = test system: normal mouse fibroblast Balb/3T3 cells; test: In vitro cytotoxicity (SRB), Balb/3T3; assay type: cell-based; settings: mean ± SD; for IC50: Mus musculus, BALB/3T3, 72 h exposure; for IC50 Balb/3T3: 72 h exposure
Procedure: as §1

SMILES: C/C(=N\Nc1nc(-c2ccc(Cl)cc2)cs1)c1ccc(Nc2nc(N)nc(N)n2)cc1 [Compound 4b, (E)-N^2-(4-(1-(2-(4-(4-chlorophenyl)-1,3-thiazol-2-yl)hydrazinylidene)ethyl)phenyl)-1,3,5-triazine-2,4,6-triamine]
- IC50 [1]: 23.8 ± 4.41 µg/mL
- viability at 24 h, 0.9 µg/ml [2]: 93.5%
- viability at 24 h, 1.8 µg/ml [2]: 95.8%
- viability at 24 h, 3.9 µg/ml [2]: 90.1%
- viability at 24 h, 7.8 µg/ml [2]: 94.7%
- viability at 24 h, 15.6 µg/ml [2]: 103%
- viability at 24 h, 31.2 µg/ml [2]: 115%
- viability at 24 h, 62.5 µg/ml [2]: 115%
- viability at 24 h, 125 µg/ml [2]: 113%
- IC50 [3]: > 100 µg/mL

SMILES: C/C(=N\Nc1nc(-c2cc3ccccc3oc2=O)cs1)c1ccc(Nc2nc(N)nc(N)n2)cc1 [Compound 4f, (E)-3-(2-(2-(1-(4-(4,6-diamino-1,3,5-triazin-2-yloamino)phenyl)ethylidene)hydrazinyl)thiazol-4-yl)-2H-chromen-2-on]
- IC50 A549 [1]: no antiproliferative activity
- IC50 Balb/3T3 [3]: >100 µg/mL

SMILES: C/C(=N\Nc1nc(-c2ccc(Br)cc2)cs1)c1ccc(Nc2nc(N)nc(N)n2)cc1 [Compound 4d, (E)-N^2-(4-(1-(2-(4-(4-bromophenyl)-1,3-thiazol-2-yl)hydrazinylidene)ethyl)phenyl)-1,3,5-triazine-2,4,6-triamine]
- IC50 [1]: 24.7 ± 6.1 µg/mL
- viability at 24 h, 0.9 µg/ml [2]: 99.9%
- viability at 24 h, 1.8 µg/ml [2]: 94.4%
- viability at 24 h, 3.9 µg/ml [2]: 90.1%
- viability at 24 h, 7.8 µg/ml [2]: 86%
- viability at 24 h, 15.6 µg/ml [2]: 104%
- viability at 24 h, 31.2 µg/ml [2]: 114%
- viability at 24 h, 62.5 µg/ml [2]: 100%
- viability at 24 h, 125 µg/ml [2]: 112%
- IC50 [3]: 65.2 ± 24.5 µg/mL

SMILES: C/C(=N\Nc1nc(-c2ccc3[nH]c(=O)oc3c2)cs1)c1ccc(Nc2nc(N)nc(N)n2)cc1 [Compound 4l, (E)-6-(2-(2-(1-(4-(4,6-diamino-1,3,5-triazin-2-yloamino)phenyl)ethylidene)hydrazinyl)thiazol-4-yl)-benzo[d]oxazol-2(3H)-on]
- IC50 Balb/3T3 [3]: >100 µg/mL

SMILES: C/C(=N\Nc1nc(-c2ccc(F)cc2)cs1)c1ccc(Nc2nc(N)nc(N)n2)cc1 [Compound 4a, (E)-N^2-(4-(1-(2-(4-(4-fluorophenyl)-1,3-thiazol-2-yl)hydrazinylidene)ethyl)phenyl)-1,3,5-triazine-2,4,6-triamine]
- IC50 [1]: 38.6 ± 4.17 µg/mL
- viability at 24 h, 0.9 µg/ml [2]: 90.5%
- viability at 24 h, 1.8 µg/ml [2]: 97.6%
- viability at 24 h, 3.9 µg/ml [2]: 100%
- viability at 24 h, 7.8 µg/ml [2]: 95.9%
- viability at 24 h, 15.6 µg/ml [2]: 103%
- viability at 24 h, 31.2 µg/ml [2]: 107%
- viability at 24 h, 62.5 µg/ml [2]: 105%
- viability at 24 h, 125 µg/ml [2]: 100%
- IC50 [3]: 62.6 ± 8.69 µg/mL

SMILES: C/C(=N\Nc1nc(-c2ccc(I)cc2)cs1)c1ccc(Nc2nc(N)nc(N)n2)cc1 [Compound 4e, (E)-N^2-(4-(1-(2-(4-(4-iodophenyl)-1,3-thiazol-2-yl)hydrazinylidene)ethyl)phenyl)-1,3,5-triazine-2,4,6-triamine]
- IC50 [1]: 45.4 ± 18.3 µg/mL
- viability at 24 h, 0.9 µg/ml [2]: 100%
- viability at 24 h, 1.8 µg/ml [2]: 100%
- viability at 24 h, 3.9 µg/ml [2]: 97%
- viability at 24 h, 7.8 µg/ml [2]: 87.3%
- viability at 24 h, 15.6 µg/ml [2]: 101%
- viability at 24 h, 31.2 µg/ml [2]: 113%
- viability at 24 h, 62.5 µg/ml [2]: 117%
- viability at 24 h, 125 µg/ml [2]: 113%
- IC50 [3]: > 100 µg/mL

SMILES: C/C(=N\Nc1nc(-c2ccc(C)cc2)cs1)c1ccc(Nc2nc(N)nc(N)n2)cc1 [Compound 4c, (E)-N^2-(4-(1-(2-(4-(4-tolyl)-1,3-thiazol-2-yl)hydrazinylidene)ethyl)phenyl)-1,3,5-triazine-2,4,6-triamine]
- IC50 [1]: 62.4 ± 11.5 µg/mL
- viability at 24 h, 0.9 µg/ml [2]: 92.4%
- viability at 24 h, 1.8 µg/ml [2]: 102%
- viability at 24 h, 3.9 µg/ml [2]: 99%
- viability at 24 h, 7.8 µg/ml [2]: 101%
- viability at 24 h, 15.6 µg/ml [2]: 99.6%
- viability at 24 h, 31.2 µg/ml [2]: 102%
- viability at 24 h, 62.5 µg/ml [2]: 112%
- viability at 24 h, 125 µg/ml [2]: 109%
- IC50 [3]: > 100 µg/mL

More lines, main results first:

- IC50 [1]: 33.6 ± 2.42 µg/mL
SMILES: C/C(=N\Nc1nc(-c2ccc([N+](=O)[O-])cc2)cs1)c1ccc(Nc2nc(N)nc(N)n2)cc1 [Compound 4h, (E)-N^2-(4-(1-(2-(4-(4-nitrophenyl)-1,3-thiazol-2-yl)hydrazinylidene)ethyl)phenyl)-1,3,5-triazine-2,4,6-triamine]
- viability at 24 h, 0.9 µg/ml [2]: 104%
- viability at 24 h, 1.8 µg/ml [2]: 99.4%
- viability at 24 h, 3.9 µg/ml [2]: 106%
- viability at 24 h, 7.8 µg/ml [2]: 109%
- viability at 24 h, 15.6 µg/ml [2]: 110%
- viability at 24 h, 31.2 µg/ml [2]: 109%
- viability at 24 h, 62.5 µg/ml [2]: 109%
- viability at 24 h, 125 µg/ml [2]: 104%
- IC50 [3]: > 100 µg/mL

- IC50 [1]: 57.5 ± 20.7 µg/mL
SMILES: C/C(=N\Nc1nc(-c2ccc(Cl)c(Cl)c2)cs1)c1ccc(Nc2nc(N)nc(N)n2)cc1 [Compound 4i, (E)-N^2-(4-(1-(2-(4-(3,4-dichlorophenyl)-1,3-thiazol-2-yl)hydrazinylidene)ethyl)phenyl)-1,3,5-triazine-2,4,6-triamine]
- viability at 24 h, 0.9 µg/ml [2]: 97.5%
- viability at 24 h, 1.8 µg/ml [2]: 93.7%
- viability at 24 h, 3.9 µg/ml [2]: 93.9%
- viability at 24 h, 7.8 µg/ml [2]: 92.6%
- viability at 24 h, 15.6 µg/ml [2]: 97.3%
- viability at 24 h, 31.2 µg/ml [2]: 112%
- viability at 24 h, 62.5 µg/ml [2]: 111%
- IC50 [3]: > 100 µg/mL

- IC50 A549 [1]: no antiproliferative activity
SMILES: C/C(=N\Nc1nc(-c2ccccc2)cs1)c1ccc(Nc2nc(N)nc(N)n2)cc1 [Compound 4k, (E)-N^2-(4-(1-(2-(4-phenyl-1,3-thiazol-2-yl)hydrazinylidene)ethyl)phenyl)-1,3,5-triazine-2,4,6-triamine]
- viability at 24 h, 0.9 µg/ml [2]: 91.9%
- viability at 24 h, 1.8 µg/ml [2]: 95.5%
- viability at 24 h, 3.9 µg/ml [2]: 99.3%
- viability at 24 h, 7.8 µg/ml [2]: 95.7%
- viability at 24 h, 15.6 µg/ml [2]: 104%
- viability at 24 h, 31.2 µg/ml [2]: 106%
- viability at 24 h, 62.5 µg/ml [2]: 113%
- viability at 24 h, 125 µg/ml [2]: 113%
- IC50 [3]: > 100 µg/mL

- IC50 A549 [1]: no antiproliferative activity
SMILES: C/C(=N\Nc1nc(-c2ccc(NS(C)(=O)=O)cc2)cs1)c1ccc(Nc2nc(N)nc(N)n2)cc1 [Compound 4j, (E)-N-(4-(2-(2-(1-(4-(4,6-diamino-1,3,5-triazin-2-yloamino)phenyl)ethylidene)hydrazinyl)thiazol-4-yl)phenyl)-methanesulfonamide]
- IC50 Balb/3T3 [3]: >100 µg/mL

- IC50 A549 [1]: no antiproliferative activity
SMILES: CC(=O)Nc1ccc(-c2csc(N/N=C(\C)c3ccc(Nc4nc(N)nc(N)n4)cc3)n2)cc1 [Compound 4g, (E)-N^2-(4-(2-(2-(1-(4-(4,6-diamino-1,3,5-triazin-2-yloamino)phenyl)ethylidene)hydraziny)thiazol-4-yl)phenyl)-acetamide]
- IC50 Balb/3T3 [3]: >100 µg/mL
